# The supplement of paper PMC10307832
# Legend:
# Experiment in all cases: relative viability (nuclei count vs DMSO), 5 days (fraction); higher = more cells survive
# NCI-H2087 = tested on: NCI-H2087
# In short: (§1)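 The day after seeding in 1536-well plates, lung cancer cell lines were treated by pin tool with a single drug, or with a fixed anchor-drug dose together with five library-drug doses (not always all listed) in √10 steps. After 5 days, a combined fix-and-stain solution (final 0.05% Triton X-100, 1% formaldehyde, 1 ug/ml Hoechst) was added. Nuclei counted on 4× images gave relative viability as treated counts over vehicle counts, reported as the median of duplicate plates.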
# LU99A = tested on: LU99A
# In short: as §1
# NCI-H1734 = tested on: NCI-H1734
# In short: as §1
# RERF-LC-KJ = tested on: RERF-LC-KJ
# In short: as §1
# NCI-H3122 = tested on: NCI-H3122
# In short: as §1
# CAL-12T = tested on: CAL-12T
# In short: as §1
# LOU-NH91 = tested on: LOU-NH91
# In short: as §1
# ChaGo-K-1 = tested on: ChaGo-K-1
# In short: as §1
# NCI-H2228 = tested on: NCI-H2228
# In short: as §1
# NCI-H2405 = tested on: NCI-H2405
# In short: as §1
# EPLC-272H = tested on: EPLC-272H
# In short: as §1
# NCI-H1793 = tested on: NCI-H1793
# In short: as §1
# HCC-78 = tested on: HCC-78
# In short: as §1
# LC-2-ad = tested on: LC-2-ad
# In short: as §1
# NCI-H1755 = tested on: NCI-H1755
# In short: as §1
# NCI-H1944 = tested on: NCI-H1944
# In short: as §1
# NCI-H460 = tested on: NCI-H460
# In short: as §1
# UMC-11 = tested on: UMC-11
# In short: as §1
# HCC-366 = tested on: HCC-366
# In short: as §1
# NCI-H2170 = tested on: NCI-H2170
# In short: as §1
# PC-3 [JPC-3] = tested on: PC-3 [JPC-3]
# In short: as §1
# NCI-H1395 = tested on: NCI-H1395
# In short: as §1
# NCI-H1651 = tested on: NCI-H1651
# In short: as §1
compound,measurement,setting,value
CC(C)Oc1cc(Nc2nc(N[C@@H](C)c3ccc(F)cn3)ncc2Cl)n[nH]1 [AZ23] + CC(=O)Nc1cccc(-n2c(=O)n(C3CC3)c(=O)c3c(Nc4ccc(I)cc4F)n(C)c(=O)c(C)c32)c1 [Trametinib] (partner 0.02 µM),relative viability,NCI-H2087; first compound 0.01 µM,0.189
same,relative viability,NCI-H2087; first compound 0.03162 µM,0.196
same,relative viability,NCI-H2087; first compound 0.3162 µM,0.187
same,relative viability,LU99A; first compound 0.01 µM,0.519
same,relative viability,LU99A; first compound 0.03162 µM,0.708
same,relative viability,LU99A; first compound 0.3162 µM,0.536
same,relative viability,NCI-H1734; first compound 0.01 µM,0.733
same,relative viability,NCI-H1734; first compound 0.03162 µM,0.726
same,relative viability,NCI-H1734; first compound 0.3162 µM,0.436
same,relative viability,RERF-LC-KJ; first compound 0.01 µM,0.837
same,relative viability,RERF-LC-KJ; first compound 0.03162 µM,0.883
same,relative viability,RERF-LC-KJ; first compound 0.3162 µM,0.862
same,relative viability,NCI-H3122; first compound 0.01 µM,0.268
same,relative viability,NCI-H3122; first compound 0.03162 µM,0.243
same,relative viability,NCI-H3122; first compound 0.3162 µM,0.22
same,relative viability,CAL-12T; first compound 0.03162 µM,0.28
same,relative viability,CAL-12T; first compound 0.3162 µM,0.368
same,relative viability,LOU-NH91; first compound 0.01 µM,0.784
same,relative viability,LOU-NH91; first compound 0.03162 µM,0.823
same,relative viability,LOU-NH91; first compound 0.3162 µM,0.784
same,relative viability,ChaGo-K-1; first compound 0.01 µM,0.855
same,relative viability,ChaGo-K-1; first compound 0.03162 µM,0.921
same,relative viability,ChaGo-K-1; first compound 0.3162 µM,0.979
same,relative viability,NCI-H2228; first compound 0.01 µM,0.523
same,relative viability,NCI-H2228; first compound 0.03162 µM,0.631
same,relative viability,NCI-H2228; first compound 0.3162 µM,0.401
same,relative viability,NCI-H2405; first compound 0.01 µM,0.572
same,relative viability,NCI-H2405; first compound 0.03162 µM,0.673
same,relative viability,NCI-H2405; first compound 0.3162 µM,0.599
same,relative viability,EPLC-272H; first compound 0.03162 µM,0.267
same,relative viability,EPLC-272H; first compound 0.3162 µM,0.274
same,relative viability,NCI-H1793; first compound 0.01 µM,0.45
same,relative viability,NCI-H1793; first compound 0.03162 µM,0.407
same,relative viability,NCI-H1793; first compound 0.3162 µM,0.347
same,relative viability,HCC-78; first compound 0.01 µM,0.494
same,relative viability,HCC-78; first compound 0.03162 µM,0.669
same,relative viability,HCC-78; first compound 0.3162 µM,0.418
same,relative viability,LC-2-ad; first compound 0.01 µM,1.09
same,relative viability,LC-2-ad; first compound 0.03162 µM,0.898
same,relative viability,LC-2-ad; first compound 0.3162 µM,0.868
same,relative viability,NCI-H1755; first compound 0.01 µM,0.828
same,relative viability,NCI-H1755; first compound 0.03162 µM,0.774
same,relative viability,NCI-H1755; first compound 0.3162 µM,0.708
same,relative viability,NCI-H1944; first compound 0.01 µM,0.438
same,relative viability,NCI-H1944; first compound 0.03162 µM,0.398
same,relative viability,NCI-H1944; first compound 0.3162 µM,0.386
same,relative viability,NCI-H460; first compound 0.01 µM,0.119
same,relative viability,NCI-H460; first compound 0.03162 µM,0.128
same,relative viability,NCI-H460; first compound 0.3162 µM,0.166
same,relative viability,UMC-11; first compound 0.01 µM,0.591
same,relative viability,UMC-11; first compound 0.03162 µM,0.872
same,relative viability,UMC-11; first compound 0.3162 µM,0.729
same,relative viability,HCC-366; first compound 0.01 µM,0.334
same,relative viability,HCC-366; first compound 0.03162 µM,0.399
same,relative viability,HCC-366; first compound 0.3162 µM,0.33
same,relative viability,NCI-H2170; first compound 0.01 µM,1.14
same,relative viability,NCI-H2170; first compound 0.03162 µM,0.953
same,relative viability,NCI-H2170; first compound 0.3162 µM,0.994
same,relative viability,PC-3 [JPC-3]; first compound 0.01 µM,0.612
same,relative viability,PC-3 [JPC-3]; first compound 0.03162 µM,0.787
same,relative viability,PC-3 [JPC-3]; first compound 0.3162 µM,0.735
same,relative viability,NCI-H1395; first compound 0.03162 µM,1.06
same,relative viability,NCI-H1395; first compound 0.3162 µM,1.06
same,relative viability,NCI-H1651; first compound 0.01 µM,0.829
same,relative viability,NCI-H1651; first compound 0.03162 µM,0.87
same,relative viability,NCI-H1651; first compound 0.3162 µM,0.854
C[C@@H]1CN(CC(=O)Nc2ccc3c(c2)Cc2cccc(-c4cc(=O)cc(N5CCOCC5)o4)c2S3)C[C@H](C)O1 + CC1(C)CCC(c2ccc(Cl)cc2)=C(CN2CCN(c3ccc(C(=O)NS(=O)(=O)c4ccc(N[C@H](CCN5CCOCC5)CSc5ccccc5)c(S(=O)(=O)C(F)(F)F)c4)cc3)CC2)C1 [Navitoclax] (partner 0.5 µM),relative viability,NCI-H2087; first compound 0.04 µM,0.971
same,relative viability,NCI-H2087; first compound 0.1265 µM,1.1
same,relative viability,NCI-H2087; first compound 0.4 µM,0.909
same,relative viability,NCI-H2087; first compound 4 µM,0.923
same,relative viability,LU99A; first compound 0.04 µM,0.856
same,relative viability,LU99A; first compound 0.1265 µM,0.758
same,relative viability,LU99A; first compound 0.4 µM,0.926
same,relative viability,LU99A; first compound 4 µM,0.821
same,relative viability,NCI-H1734; first compound 0.04 µM,0.783
same,relative viability,NCI-H1734; first compound 0.1265 µM,0.886
same,relative viability,NCI-H1734; first compound 0.4 µM,0.808
same,relative viability,NCI-H1734; first compound 4 µM,0.923
same,relative viability,RERF-LC-KJ; first compound 0.04 µM,0.736
same,relative viability,RERF-LC-KJ; first compound 0.1265 µM,1.12
same,relative viability,RERF-LC-KJ; first compound 0.4 µM,1.16
same,relative viability,RERF-LC-KJ; first compound 4 µM,0.713
same,relative viability,NCI-H3122; first compound 0.04 µM,1.05
same,relative viability,NCI-H3122; first compound 0.1265 µM,1.03
same,relative viability,NCI-H3122; first compound 0.4 µM,0.965
same,relative viability,NCI-H3122; first compound 4 µM,0.95
same,relative viability,CAL-12T; first compound 0.04 µM,1.42
same,relative viability,CAL-12T; first compound 0.1265 µM,1.11
same,relative viability,CAL-12T; first compound 0.4 µM,1.07
same,relative viability,CAL-12T; first compound 4 µM,0.652
same,relative viability,LOU-NH91; first compound 0.04 µM,0.701
same,relative viability,LOU-NH91; first compound 0.1265 µM,0.617
same,relative viability,LOU-NH91; first compound 0.4 µM,0.702
same,relative viability,LOU-NH91; first compound 4 µM,0.66
same,relative viability,ChaGo-K-1; first compound 0.1265 µM,0.933
same,relative viability,ChaGo-K-1; first compound 0.4 µM,0.956
same,relative viability,ChaGo-K-1; first compound 4 µM,0.936
same,relative viability,NCI-H2228; first compound 0.04 µM,1.02
same,relative viability,NCI-H2228; first compound 0.1265 µM,1.11
same,relative viability,NCI-H2228; first compound 0.4 µM,0.639
same,relative viability,NCI-H2228; first compound 4 µM,0.753
same,relative viability,NCI-H2405; first compound 0.04 µM,1.02
same,relative viability,NCI-H2405; first compound 0.1265 µM,1.1
same,relative viability,NCI-H2405; first compound 0.4 µM,0.866
same,relative viability,NCI-H2405; first compound 4 µM,0.872
same,relative viability,EPLC-272H; first compound 0.04 µM,1.09
same,relative viability,EPLC-272H; first compound 0.1265 µM,0.935
same,relative viability,EPLC-272H; first compound 0.4 µM,1.11
same,relative viability,EPLC-272H; first compound 4 µM,0.911
same,relative viability,NCI-H1793; first compound 0.04 µM,0.495
same,relative viability,NCI-H1793; first compound 0.1265 µM,0.341
same,relative viability,NCI-H1793; first compound 0.4 µM,0.322
same,relative viability,NCI-H1793; first compound 4 µM,0.377
same,relative viability,HCC-78; first compound 0.04 µM,0.668
same,relative viability,HCC-78; first compound 0.1265 µM,0.706
same,relative viability,HCC-78; first compound 0.4 µM,0.69
same,relative viability,HCC-78; first compound 4 µM,0.914
same,relative viability,LC-2-ad; first compound 0.04 µM,0.587
same,relative viability,LC-2-ad; first compound 0.1265 µM,0.46
same,relative viability,LC-2-ad; first compound 0.4 µM,0.336
same,relative viability,LC-2-ad; first compound 4 µM,0.29
same,relative viability,NCI-H1755; first compound 0.04 µM,1.02
same,relative viability,NCI-H1755; first compound 0.1265 µM,0.945
same,relative viability,NCI-H1755; first compound 0.4 µM,0.924
same,relative viability,NCI-H1755; first compound 4 µM,0.92
same,relative viability,NCI-H1944; first compound 0.1265 µM,1.02
same,relative viability,NCI-H1944; first compound 0.4 µM,1.11
same,relative viability,NCI-H1944; first compound 4 µM,1.06
same,relative viability,NCI-H460; first compound 0.04 µM,1.07
same,relative viability,NCI-H460; first compound 0.1265 µM,1.17
same,relative viability,NCI-H460; first compound 0.4 µM,1.22
same,relative viability,NCI-H460; first compound 4 µM,0.955
same,relative viability,UMC-11; first compound 0.04 µM,0.32
same,relative viability,UMC-11; first compound 0.1265 µM,0.288
same,relative viability,UMC-11; first compound 0.4 µM,0.301
same,relative viability,UMC-11; first compound 4 µM,0.229
same,relative viability,HCC-366; first compound 0.04 µM,1.04
same,relative viability,HCC-366; first compound 0.1265 µM,1.08
same,relative viability,HCC-366; first compound 0.4 µM,1.15
same,relative viability,HCC-366; first compound 4 µM,0.944
same,relative viability,NCI-H2170; first compound 0.1265 µM,0.617
same,relative viability,NCI-H2170; first compound 0.4 µM,0.471
same,relative viability,NCI-H2170; first compound 4 µM,0.475
same,relative viability,PC-3 [JPC-3]; first compound 0.04 µM,0.875
same,relative viability,PC-3 [JPC-3]; first compound 0.1265 µM,0.795
same,relative viability,PC-3 [JPC-3]; first compound 0.4 µM,0.836
same,relative viability,PC-3 [JPC-3]; first compound 4 µM,0.835
same,relative viability,NCI-H1395; first compound 0.04 µM,1.16
same,relative viability,NCI-H1395; first compound 0.1265 µM,1.26
same,relative viability,NCI-H1395; first compound 0.4 µM,1.35
same,relative viability,NCI-H1395; first compound 4 µM,1.16
same,relative viability,NCI-H1651; first compound 0.04 µM,1.05
same,relative viability,NCI-H1651; first compound 0.1265 µM,0.987
same,relative viability,NCI-H1651; first compound 0.4 µM,0.836
same,relative viability,NCI-H1651; first compound 4 µM,1.03
